≈ marks a conversion by molar mass, not a printed value. Like-named read-outs stand apart in the source and are kept apart here.
How the values were obtained:
Format in all cases: cell-based, calf
chondrocytes [1] = experiment: Fluorescence of photosensitizers in chondrocytes (confocal microscopy)
chondrocytes [2] = experiment: Cell proliferation ([^3 H]-thymidine incorporation) after PDT; details: for effect on cellular proliferation rates (in words): [^3 H]-thymidine incorporation (FIG. 2); for IC50: Bos taurus, Chondrocyte
Procedure: (§1) Chondrocytes were harvested by established collagenase digestion techniques. Articular cartilage was aseptically dissected from the femoral condyles and patellas of calf knee joints. […] The resulting cell suspensions were filtered through a cell sieve and washed twice with serum free TCM. The cells were resuspended in the same medium containing 5% heat inactivated fetal calf serum (BioWhittaker, Walkerville, Md.) (FCS-TCM) for seeding. Cell number was determined using a hemocytometer. […] Cells were plated at a density of 1.5×10^6 cells/ml into Falcon 96 well cell culture plates (Becton Dickinson Labware, Franklin Lakes, N.J.) for the cytotoxicity and cell proliferation experiments and into Falcon 6 well cell culture plates for the Photosensitizer uptake studies. Chondrocyte cultures were maintained at 37° C. in a 5% CO2 incubator for 1 week prior to initiation of the photosensitization studies.
(§2) Photofrin® (PF) and Benzoporphyrin Derivative (BPD-MA) were obtained from Quadralogic Technologies (Vancouver, Canada). Chlorin e6 (Ce6) and chloroaluminum phthalocyanine (CASP) were obtained from Ciba Geigy (Basel, Switzerland) and Porphyrin Products (Logan, Utah), respectively. All photosensitizers were added to the chondrocytes in the dark 3 hours prior to light exposure. Photosensitizer stock solutions were prepared immediately prior to each experiment; serial dilutions were prepared using FCS-TCM. All irradiations were done at the appropriate excitation wavelengths for each photosensitizer (BPD-MA 690 nm; Ce6 658 nm; CASP 680 nm; PF 624 nm) using light provided by an argon ion pumped dye laser (Coherent, Palo Alto, Calif.). Following light exposure, control and irradiated cells were maintained for 72 hours prior to the assessment of cellular viability and proliferation rates. Cells were examined daily by light microscopy for morphologic changes.
Cell proliferation was determined by [^3 H]-thymidine incorporation for all chondrocyte cultures 72 hours after drug and/or light exposure. The cell cultures were labeled with 5 μCi/ml [^3 H]-thymidine (35 Ci/mmol) (ICN, Irvine, Calif.) in FCS-TCM. After incubation for 20 hours, the radioactive medium was removed and the cells were rinsed three times with phosphate buffered saline (PBS) to remove unincorporated label. The cells were then lysed with buffer containing 150 mM Tris pH 8.0, 200 mM sodium chloride, 10% triton X-100 and 1% SDS. [^3 H]-thymidine incorporation was determined by liquid scintillation methods and the data are expressed as mean % control ±S.E.M. of samples irradiated without photosensitizer addition.
(§3) Articular chondrocytes were maintained in primary culture for five days after plating. Photosensitizer stocks were serially diluted in FCS-TCM and added to triplicate wells. The cells were incubated in the dark for 3 hours. The photosensitizer-containing FCS-TCM was then removed and the cells were rinsed with 1 ml PBS. To digest the extracellular matrix, the cells were then immersed in 1 ml of a solution of 1 mg/ml collagenase and 0.1 mg/ml hyaluronidase in serum-free TCM. The resulting single cell suspensions were transferred to microfuge tubes and were centrifuged at 3.3×g for 5 minutes. The collagenase solution was removed and the cells were rinsed three times with calcium/magnesium-free PBS. Aliquots were taken for cell counting prior to cell lysis with 1 ml 0.1 N NaOH containing 1% SDS. Cell counting was performed by hemocytometer and Coulter counter. Fluorescent spectra of the cell lysates were obtained using a Spex FluoroMax spectrofluorometer (ISA Instruments, Edison, N.J.) at the appropriate excitation/emission wavelengths for each of the four photosensitizers studied. Fluorescence spectra were corrected for background fluorescence. Relative uptake values were obtained by regression analysis of standard curves of known photosensitizer concentrations. […] Values of uptake at the IC50 are shown in fg/cell.

chondrocytes [3] = experiment: PDT-induced cytotoxicity (MTT cellular viability) in chondrocytes; details: for toxic response / cellular viability (in words): 1, 5 or 10 J/cm^2 light; for decrease in cellular viability: BPD-MA concentrations exceeding 0.1 μg/ml, 690 nm
Procedure: as §1, §2
Screening studies of toxicity determined the range of doses and light response for each photosensitizer. These predetermined ranges were used for all of the studies described. […] Dosages greater than 50 μg/ml were considered not clinically relevant and a dose range extending to 50 μg/ml was chosen for these studies.
PDT-induced cytotoxicity was determined 72 hours after irradiation. […] MTT is metabolized via mitochondrial dehydrogenase enzymes to a formazan dye which can be measured spectrophotometrically. Cytotoxicity is expressed as the percentage of formazan produced in cells treated with visible light of different wavelengths and intensities relative to control cells (% control). The data are expressed as the mean ±S.E.M. from triplicate experiments.

MMP2 = experiment: Gelatin zymography, MMP2 after PDT; details: for reduction of MMP2 production: at the IC50 dose
Procedure: as §1, §2
Aliquots of conditioned medium were mixed with 1 ml of acetone and maintained at -20° C. for 16-20 hours. The aliquots were microcentrifuged at 14,000×g for 15 minutes, the supernatant was removed and the precipitated protein was dried in a vacuum concentrator (Savant, Farmingdale, N.Y.) to remove residual acetone. Conditioned medium samples were mixed with sample buffer (0.4 M Tris pH 6.8, 5% SDS, 20% glycerol, 0.003% bromophenol blue) and applied directly, without boiling or reduction, to 10% acrylamide gels containing 1% gelatin. […] The gels were stained for 1 hour at room temperature in 30% methanol/10% acetic acid containing 0.5% coomassie blue R-250 and destained in the same solution without dye. The gelatinolytic activity of the proteins was evidenced by clear bands against the blue background of the stained gelatin.

articular chondrocytes = experiment: Photosensitizer uptake studies; details: for relative uptake (in words): at the IC50 concentrations, 3 hour incubation; for IC50 Uptake: uptake at the IC50, 3 hours incubation in the dark
Procedure: as §1
as §3, with “fg/cell. Average protein per cell was calculated from the cell counts and protein concentration determined by the Lowry protein assay.” for “fg/cell.”

MMP9 = experiment: Gelatin zymography, MMP9 after PDT; details: at PDT parameter levels non-toxic to chondrocytes
Procedure: Chondrocytes were harvested by established collagenase digestion techniques. Articular cartilage was aseptically dissected from the femoral condyles and patellas of calf knee joints. Condyle surface shavings were finely minced and digested overnight at 37° C. with collagenase 1 mg/ml (Type II; 355 U/mg dry weight (dw)) and hyaluronidase 0.1 mg/ml (1060 USP/NF units/mg dw) (Worthington Biochemicals, Inc., Freehold, N.J.) in Dulbecco's Modified Eagle's Medium (DMEM; Mediatech, Herndon, Va.) supplemented with 20 mM HEPES, 100 U/ml penicillin G, 100 μg/ml ascorbic acid (serum free TCM). The resulting cell suspensions were filtered through a cell sieve and washed twice with serum free TCM. The cells were resuspended in the same medium containing 5% heat inactivated fetal calf serum (BioWhittaker, Walkerville, Md.) (FCS-TCM) for seeding. Cell number was determined using a hemocytometer. Cell viability, which was determined by trypan blue exclusion, was greater than 99% for all preparations. Cells were plated at a density of 1.5×10^6 cells/ml into Falcon 96 well cell culture plates (Becton Dickinson Labware, Franklin Lakes, N.J.) for the cytotoxicity and cell proliferation experiments and into Falcon 6 well cell culture plates for the Photosensitizer uptake studies. […]

[4] = concentration inhibiting [^3 H]-thymidine incorporation by 50%
[5] = CASP parameters tested in zymography studies

Benzoporphyrin Derivative [BPD-MA]
cellular fluorescence intensity (in words) (chondrocytes [1]): strongest fluorescence signals | fluorescence/uptake in differentiated vs dedifferentiated chondrocytes (in words) (chondrocytes [1]): Fluorescence occurred uniformly in both differentiated and dedifferentiated chondrocytes | subcellular fluorescence distribution (in words) (chondrocytes [1]): diffuse cytoplasmic fluorescence for all drug concentrations studied. No nuclear or membrane staining was observed | IC50, inhibition of chondrocyte proliferation ([^3 H]-thymidine incorporation) (chondrocytes [2]; 72 hours after drug and/or light exposure, light dose not given): 0.0503 mg/L | effect on cellular proliferation rates (in words) (chondrocytes [2]): most toxic effects | IC50 (Table 2) (chondrocytes [2]; [4]): 0.05 mg/L | toxic response / cellular viability (in words) (chondrocytes [3]): most toxic responses in chondrocyte cultures | decrease in cellular viability (chondrocytes [3]; 1 J/cm^2 light, 72 hours after irradiation): 60% | decrease in cellular viability (chondrocytes [3]; 5 or 10 J/cm^2 light, 72 hours after irradiation): 80% | MMP2 production (in words) (MMP2; at a highly toxic dose): non-detectable | reduction of MMP2 production (MMP2): approximately 50% | MMP2 production (in words) (MMP2; dependence on cell killing): MMP2 production decreased as a function of cell killing | Photons Absorbed at IC50 (articular chondrocytes): 5.86 × 10^6 photons/cell | relative uptake (in words) (articular chondrocytes): lowest relative uptake | IC50 Uptake (articular chondrocytes): 1.02 fg/cell

C=Cc1c(C)c2cc3nc(c(CC(=O)O)c4[nH]c(cc5nc(cc1[nH]2)C(C)=C5CC)c(C)c4C(=O)O)[C@@H](CCC(=O)O)[C@@H]3C [Ce6, Chlorin e6]
MMP9 production (in words) (MMP9): reduced at PDT parameter levels non-toxic to chondrocytes | cellular fluorescence intensity (in words) (chondrocytes [1]): elevated levels of cytoplasmic fluorescence comparable in intensity and distribution to BPD-MA | IC50 (chondrocytes [2]; 72 hours after drug and/or light exposure, light dose not given, read-out: IC50, inhibition of chondrocyte proliferation ([^3 H]-thymidine incorporation)): 4.4 mg/L (≈ 7.37 µM) | IC50 (chondrocytes [2]; concentration inhibiting [^3 H]-thymidine incorporation by 50%, read-out: IC50 (Table 2)): 4.4 mg/L (≈ 7.37 µM) | decrease in viability (chondrocytes [3]; more than 6 μg/ml Ce6, 5 or 10 J/cm^2 light, 658 nm, 72 hours after irradiation): approximately 50% | MMP2 production (in words) (MMP2; at PDT parameter levels non-toxic to chondrocytes): reduced at PDT parameter levels non-toxic to chondrocytes | MMP production (in words) (MMP2; at high drug doses): correspondingly greater decreases in MMP production | reduction of MMP2 production (MMP2): > 95% | total protein concentration (in words) (MMP2; zymography studies): did not vary with MMP values | Photons Absorbed at IC50 (articular chondrocytes): 1.44 × 10^8 photons/cell | relative uptake (in words) (articular chondrocytes): markedly less than for CASP and PF | IC50 Uptake (articular chondrocytes): 2.32 fg/cell

[Cl][Al]1[n]2c3c4ccccc4c2N=C2N=C(N=c4c5ccccc5c([n]41)=NC1=NC(=N3)c3ccccc31)c1ccccc12 [CASP, chloroaluminum phthalocyanine]
cellular fluorescence intensity (in words) (chondrocytes [1]): Minimal CASP fluorescence was observed at the drug concentrations studied | reduction of [^3 H]-thymidine incorporation (chondrocytes [2]; 50 μg/ml, highest concentration of CASP investigated): 25% | decrease by [^3 H]-thymidine incorporation (in words) (chondrocytes [2]; [5]): no decrease in cellular viability was observed | effect on cellular proliferation rates (in words) (chondrocytes [2]): least toxic | IC50 (Table 2) (chondrocytes [2]; [4]): > 50 mg/L | toxic response / cellular viability (in words) (chondrocytes [3]): minimally toxic to articular chondrocytes | decrease in cellular viability by MTT production (in words) (chondrocytes [3]; [5]): no decrease in cellular viability was observed | saturation of toxicity effects (in words) (chondrocytes [3]; in the range studied (FIG. 1D)): No saturation effects were observed | dose response in screening studies of toxicity (in words) (chondrocytes [3]; screening studies of toxicity to determine range of doses): no dose response was seen | reduction in MMP2 levels (in words) (MMP2; 3.12 μg/ml, light dose of 10 J/cm^2, no decrease in cell viability): complete reduction in MMP2 levels | reductions in MMP2 levels (in words) (MMP2; CASP parameters tested): significant reductions in MMP2 levels | decrease of MMP2 levels (MMP2; drug concentrations greater than 0.2 μg/ml, light dose of 10 J/cm^2): 25% | Photons Absorbed at IC50 (articular chondrocytes): 1.86 × 10^6 photons/cell | IC50 Uptake (articular chondrocytes): 64.77 fg/cell
